Experimental data as given in patent US5932709A (University of Michigan, priority 1997, dated 1999).

Columns and labels:
in vivo = conditions: mouse, in vivo, ip
Text: For all the models, the vehicle used to deliver the analog of interest was isotonic saline.
For the MX-1 human breast tumor xenograft models, the following procedure was used. Nude mice are implanted s.c. by trocar with fragments of MX-1 mammary carcinomas harvested from s.c. growing MX-1 tumors in nude mice hosts. When tumors are approximately 5 mm×5 mm in size (usually about ten days after inoculation), the animals are pair-matched into treatment and control groups. Each group contains ten tumored mice, each of which is ear-tagged and followed individually throughout the experiment. The administration of drugs or vehicle begins the day the animals are pair-matched (day 1). The doses, route of drug administration and schedule are selected as appropriate for the study in question. If the MTD dose of an agent is not known, it is determined in an initial dosing experiment in non-tumored mice. In a typical experiment, drugs are given at their MTD and 1/2 MTD doses i.p. on a daily×5 schedule.
The experiment is usually terminated when control tumors reach a size of 2-3 g. Mice are weighed twice weekly, and tumor measurements are taken by calipers twice weekly, starting on day 1. These tumor measurements are converted to mg tumor weight by a well known formula, and from these calculated tumor weights the termination date can be determined. Upon termination, all mice are weighed, sacrificed, and their tumors excised. Tumors are weighed, and the mean tumor weight per group is calculated.
Some drugs cause tumor shrinkage in the MX-1 model. With these agents, the final weight of a given tumor is subtracted from its own weight at the start of the treatment on day 1. This difference divided by the initial tumor weight is the % shrinkage. A mean % tumor shrinkage can be calculated from data from the mice in a group that experienced MX-1 regressions. If the tumor completely disappears in a mouse, this is considered a complete regression or complete tumor shrinkage. If desired, mice with partial or total tumor regressions can be kept alive past the termination date to see whether they live to become long term, tumor-free survivors.
Note that in the following table the abbreviation SR refers to tumor shrinkage rate, while those entries followed by a superscripted `2` are tumor growth inhibition rates, not tumor shrinkage rates.

murine B16 melanoma = experiment: Murine B16 melanoma model in vivo; parameters: species or system mouse (B6D2F1); conditions: for Survivors: 60-day
Description: (§1) 1) Murine B16 Melanoma Model
(§2) For the B16 melanoma model, the following procedure was used. B6D2F1 mice receive i.p. inocula of B16 murine melanoma brei prepared from B16 tumors growing s.c. in mice (day 0). […] If dosing information for agents is not available, the maximum tolerated dose (MTD) is determined in initial dose finding experiments in non-tumored mice.
(§3) The mean survival times of all groups are calculated, and results are expressed as mean survival of treated mice/mean survival of control mice (T/C)×100%. A T/C value of 150 means that the mice in the treated group lived 50% longer than those of the control group; this is sometimes referred to as the increase in life span or ILS value.
(§4) Mice that survive for 60 days are considered long-term survivors, or cures, in the B16 model. The universally accepted cut-off for activity in this model, which has been for years by the National Cancer Institute, is T/C=125. Conventional use of B16 over the years has set the following levels of activity: T/C<125, no activity, T/C=125-150, weak activity; T/C=150-200, modest activity; T/C=200-300, high activity; T/C>300, with long term survivors; excellent, curative activity.

[1] = Murine B16 melanoma model in vivo; parameters: species or system mouse (B6D2F1); conditions: mouse, in vivo, ip; i.p. daily×5
Description: as §1, §2, §3, §4

[2] = target: T1, human placental topoisomerase I (Homo sapiens, UniProt P11387); experiment: Inhibition of topoisomerase I catalytic activity (relaxation of supercoiled SV40 DNA); type: biochemical; conditions: for relaxation of supercoiled DNA: FIG. 18 / FIG. 19, in words; for topoisomerase I inhibition: highest concentration tested (100 μg/mL), in words; for topoisomerase I inhibitory activity: comparison in words, vs camptothecin
T1 construct: purchased TopoGen; host or cells: human placenta
T1 sequence (P11387 1-765): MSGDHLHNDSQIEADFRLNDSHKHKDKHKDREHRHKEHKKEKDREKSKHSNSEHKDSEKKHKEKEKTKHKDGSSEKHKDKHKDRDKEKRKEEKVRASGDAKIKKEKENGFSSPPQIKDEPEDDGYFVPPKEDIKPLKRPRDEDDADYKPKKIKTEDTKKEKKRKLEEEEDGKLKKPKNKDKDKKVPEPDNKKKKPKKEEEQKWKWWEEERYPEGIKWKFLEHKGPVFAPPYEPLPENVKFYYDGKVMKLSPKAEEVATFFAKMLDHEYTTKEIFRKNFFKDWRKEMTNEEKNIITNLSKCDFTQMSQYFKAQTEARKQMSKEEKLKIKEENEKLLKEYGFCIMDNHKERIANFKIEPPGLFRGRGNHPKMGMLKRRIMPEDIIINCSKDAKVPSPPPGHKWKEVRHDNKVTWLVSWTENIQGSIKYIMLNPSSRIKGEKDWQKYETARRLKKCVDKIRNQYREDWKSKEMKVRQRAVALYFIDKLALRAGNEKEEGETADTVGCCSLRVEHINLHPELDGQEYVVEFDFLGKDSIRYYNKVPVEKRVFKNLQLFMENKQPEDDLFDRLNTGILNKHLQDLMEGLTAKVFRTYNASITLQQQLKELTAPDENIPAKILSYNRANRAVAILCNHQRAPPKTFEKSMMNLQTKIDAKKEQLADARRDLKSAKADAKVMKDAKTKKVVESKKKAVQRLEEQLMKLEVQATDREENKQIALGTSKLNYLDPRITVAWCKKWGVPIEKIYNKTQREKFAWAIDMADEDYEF
Description: The topoisomerase I catalytic activity was measured by converting the supercoiled SV40 DNA (Form I) to the relaxed form (Form Io). All reactions were performed in 20 μL reaction buffer (Tris-HCl, 10 mM, pH 7.5; EDTA, 1 mM; NaCl, 100 mM) with 0.25 μg SV40 DNA, 0.5 unit of human placental topoisomerase I (TopoGen) and graded concentrations of the analog tested. The reaction mixtures were incubated at 37° C. for 30 minutes. […] Ten μL of the reaction mixture was loaded onto a 1% agarose gel prepared in TAE buffer containing 2 μg/mL chloroquine; and the electrophoresis was performed at 82 volt for 4.5 hr in the TAE buffer containing 2 μg/mL chloroquine. […] The gels were then stained with 0.5 μg/mL ethidium bromide solution for 30 min or longer (if chloroquine is present during the electrophoresis step), and destained with 5 changes of deionized water. […] The DNA bands (image) on the negative were densitometrically scanned with a Molecular Dynamic Personal Densitometer. The percent inhibition of Toposiomerase I activity is calculated based on the following equation:
% Inhibition=(FSC(E+D) -FSC(E))/(FSC(C)
where FSC(E+D) represents fraction of supercoiled DNA in the presence of enzyme and drug; FSC(E) represents fraction of supercoiled DNA in the presence of enzyme alone; FSC(C) represents fraction of supercoiled DNA in the untreated SV40 DNA; the IC50 value was estimated using the same four-parameter logistic equation described in the in vitro growth inhibition studies.

| SMILES | MTD (in vivo) [mg/kg] | 60-day survivors (cures) (murine B16 melanoma; 100 mg/kg) | T/C (mean survival treated/control) (murine B16 melanoma; 100 mg/kg i.p. daily×5) [%] | Tox Deaths (murine B16 melanoma; 100 mg/kg i.p. daily×5) | ΔWeight (%) (murine B16 melanoma; 100 mg/kg i.p. daily×5) | Survivors (murine B16 melanoma; 100 mg/kg i.p. daily×5) | MTD [1] [mg/kg] | IC50 [2] [µM] | relaxation of supercoiled DNA [2] | topoisomerase I inhibition [2] | cures (murine B16 melanoma; 20 mg/kg) | T/C (mean survival treated/control) (murine B16 melanoma; 20 mg/kg i.p. daily×5) [%] | Tox Deaths (murine B16 melanoma; 20 mg/kg i.p. daily×5) | ΔWeight (%) (murine B16 melanoma; 20 mg/kg i.p. daily×5) | Survivors (murine B16 melanoma; 20 mg/kg i.p. daily×5) | topoisomerase I inhibitory activity [2] | further results |
| --- | --- | --- | --- | --- | --- | --- | --- | --- | --- | --- | --- | --- | --- | --- | --- | --- | --- |
| CC[C@@]1(O)C(=O)OCc2c1cc1n(c2=O)Cc2c-1nc1ccccc1c2CO[C@@H]1C=C[C@H](O[C@H]2O[C@H](CO)[C@@H](O)[C@H](O)[C@H]2O)[C@@H](CO)O1 [HAR6, 7-[4-O-(α-D-glucopyranosyl)-2,3-dideoxy-α-D-erythro-hex-2-enopyranosyl]-oxymethylcamptothecin] | 100 | no cures | 184 | 1/10 | -13.8% | 0/10 | 100 | > 150 | inhibition of relaxation of supercoiled DNA | moderately inhibited topoisomerase I activity |  |  |  |  |  |  | drug-related deaths (murine B16 melanoma; 100 mg/kg): one; weight loss (murine B16 melanoma; 100 mg/kg i.p. five day schedule): approximately 14%; T/C (mean survival treated/control) (murine B16 melanoma; 150 mg/kg i.p. daily×5): 185%; Tox Deaths (murine B16 melanoma; 150 mg/kg i.p. daily×5): 7/10; ΔWeight (%) (murine B16 melanoma; 150 mg/kg i.p. daily×5): -27.2%; Survivors (murine B16 melanoma; 150 mg/kg i.p. daily×5): 0/10 |
| CC[C@@]1(O)C(=O)OCc2c1cc1n(c2=O)Cc2c-1nc1ccccc1c2CO[C@@H]1C=C[C@H](O[C@H]2O[C@H](COC(C)=O)[C@@H](OC(C)=O)[C@H](OC(C)=O)[C@H]2OC(C)=O)[C@@H](COC(C)=O)O1 [HAR5, 7-[6-O-acetyl-4-O-(2,3,4,6-tetra-O-acetyl-α-D-glucopyranosyl)-2,3-dideoxy-α-D-erythro-hex-2-enopyranosyl]oxymethylcamptothecin] |  | three | 239 | 0/10 | +9.0% | 3/10 |  | > 114 | inhibition of relaxation of supercoiled DNA | moderately inhibited topoisomerase I activity |  |  |  |  |  |  | 60-day survivors (cures) (murine B16 melanoma; 200 mg/kg): three; T/C (mean survival treated/control) (murine B16 melanoma; 200 mg/kg i.p. daily×5): 232%; Tox Deaths (murine B16 melanoma; 200 mg/kg i.p. daily×5): 0/10; ΔWeight (%) (murine B16 melanoma; 200 mg/kg i.p. daily×5): +5.9%; Survivors (murine B16 melanoma; 200 mg/kg i.p. daily×5): 3/10; efficacy vs. B16 (murine B16 melanoma; among the four analogs, in words): highest efficacy vs. B16 |
| CC[C@@]1(O)C(=O)OCc2c1cc1n(c2=O)Cc2c-1nc1ccccc1c2CO[C@@H]1C=C[C@H](OC(C)=O)[C@@H](COC(C)=O)O1 [HAR4, 7-[4,6-di-O-acetyl-2,3-dideoxy-α-D-erythro-hex-2-enopyranosyl]oxymethylcamptothecin] | 10 |  |  |  |  |  | 20 | 42.3 | inhibition of relaxation of supercoiled DNA |  | one | 212 | 1/10 | -15.6 | 1/10 | quite similar to those of camptothecin | cures (murine B16 melanoma; 10 mg/kg): one; T/C (mean survival treated/control) (murine B16 melanoma; 10 mg/kg i.p. daily×5): 189%; Tox Deaths (murine B16 melanoma; 10 mg/kg i.p. daily×5): 0/10; ΔWeight (%) (murine B16 melanoma; 10 mg/kg i.p. daily×5): +6.6%; Survivors (murine B16 melanoma; 10 mg/kg i.p. daily×5): 1/10; toxic deaths (murine B16 melanoma; high dose group): one |
| CC[C@@]1(O)C(=O)OCc2c1cc1n(c2=O)Cc2c-1nc1ccccc1c2CO[C@@H]1C=C[C@H](O)[C@@H](CO)O1 [HAR7, 7-[2,3-dideoxy-α-D-erythro-hex-2-enopyranosyl]-oxymethylcamptothecin] |  |  |  |  |  |  |  | 3.95 | inhibition of relaxation of supercoiled DNA |  | no cures | 191 | 0/10 | -0.1 | 0/10 | quite similar to those of camptothecin | T/C (mean survival treated/control) (murine B16 melanoma; 40 mg/kg i.p. daily×5): 205%; Tox Deaths (murine B16 melanoma; 40 mg/kg i.p. daily×5): 0/10; ΔWeight (%) (murine B16 melanoma; 40 mg/kg i.p. daily×5): -7.9%; Survivors (murine B16 melanoma; 40 mg/kg i.p. daily×5): 1/10; 60-day survivors (murine B16 melanoma; dose not stated): one; topoisomerase I inhibition relative to HAR4 ([2]; more inhibitory than HAR4): 10 times |
